Data from article PMC6063787 (Nature, 2018).

T1: NfMCU (mitochondrial calcium uniporter ortholog) (Aspergillus fischeri, UniProt A1CWT6)
T1 sequence (A1CWT6 76-488): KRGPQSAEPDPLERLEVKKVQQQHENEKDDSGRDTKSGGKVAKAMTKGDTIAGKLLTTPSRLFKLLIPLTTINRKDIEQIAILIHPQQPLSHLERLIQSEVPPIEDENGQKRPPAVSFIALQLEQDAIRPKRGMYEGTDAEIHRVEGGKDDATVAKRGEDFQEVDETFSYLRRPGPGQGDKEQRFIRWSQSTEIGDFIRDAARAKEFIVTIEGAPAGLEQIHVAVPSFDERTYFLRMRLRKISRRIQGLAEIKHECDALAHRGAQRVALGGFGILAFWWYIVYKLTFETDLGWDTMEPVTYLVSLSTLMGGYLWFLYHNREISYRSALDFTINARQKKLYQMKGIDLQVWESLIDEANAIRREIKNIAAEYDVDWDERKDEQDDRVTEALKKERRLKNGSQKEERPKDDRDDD


How the values were obtained:
[1] = target: T1, NfMCU (mitochondrial calcium uniporter ortholog); assay: […] flux block in proteoliposomes of purified NfMCU; format: cell-based
cryo-EM structure = target: the molecule itself; assay: cryo-EM structure

| Molecule | IC50 [1] [nM] | stoichiometry N (cryo-EM structure) |
| --- | --- | --- |
| [NH2][Ru-3]([NH2])([NH2])([NH3+])([O]C=O)[O][Ru-2]([NH3+])([NH3+])([NH3+])([NH3+])[O]C=O [Ru360] | 500 |  |
| saposin (scaffolding protein, 81 residues) (natural protein) SLPCDICKDVVTAAGDMLKDNATEEEILVYLEKTCDWLPKPNMSASCKEIVDSYLPVILDIIKGEMSRPGEVCSALNLCESLQ |  | 6 |
